Activity calls are given as the source filed them.
How the values were obtained:
[1] = NIH-3T3 fibroblast cytotoxicity, dose response, cytotoxicity control, cell-based, fluorescence, Alamar Blue, secondary assay (AID 2327); type: functional;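 also: NIH-3T3 mouse fibroblasts cultured with fluconazole at 8 µg/mL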
[2] = luciferase reporter signal suppression in cells – H4 neuroglioma cells, luminescence, dose response (AID 1990); type: functional, cell-based
[3] = alpha-synuclein stem-loop luciferase translation blockers – H4 neuroglioma cells, luminescence, confirmation (AID 1988); type: functional, cell-based
Streptokinase A = target: T1, Streptokinase A (Streptococcus pyogenes serotype M1, UniProt P10520); test: viability-normalized secreted streptokinase activity reduction – plasminogen activation absorbance, OD405, dose response (AID 1914); type: functional, Streptococcus pyogenes M1 GAS;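 also: secreted streptokinase activity via plasminogen activation per viability signal from cell pellet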
T1 sequence (P10520 whole entry): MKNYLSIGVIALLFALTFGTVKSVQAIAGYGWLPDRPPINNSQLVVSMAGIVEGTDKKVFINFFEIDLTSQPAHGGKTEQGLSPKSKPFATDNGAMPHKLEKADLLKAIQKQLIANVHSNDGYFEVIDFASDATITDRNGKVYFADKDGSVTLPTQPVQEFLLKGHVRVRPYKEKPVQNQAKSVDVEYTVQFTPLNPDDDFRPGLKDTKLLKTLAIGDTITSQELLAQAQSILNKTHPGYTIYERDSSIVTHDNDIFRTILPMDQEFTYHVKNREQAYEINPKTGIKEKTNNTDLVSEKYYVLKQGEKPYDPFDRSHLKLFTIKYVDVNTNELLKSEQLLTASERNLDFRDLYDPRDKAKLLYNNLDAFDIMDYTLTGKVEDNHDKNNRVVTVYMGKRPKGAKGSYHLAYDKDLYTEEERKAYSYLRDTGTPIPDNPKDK

Caspase-3 = target: T2, Caspase-3 (Homo sapiens, UniProt P42574); type: functional;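 also: Dose-response selectivity test against caspase-3 for candidate inhibitors of sentrin-specific proteases (SENPs)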
T2 sequence (P42574 whole entry): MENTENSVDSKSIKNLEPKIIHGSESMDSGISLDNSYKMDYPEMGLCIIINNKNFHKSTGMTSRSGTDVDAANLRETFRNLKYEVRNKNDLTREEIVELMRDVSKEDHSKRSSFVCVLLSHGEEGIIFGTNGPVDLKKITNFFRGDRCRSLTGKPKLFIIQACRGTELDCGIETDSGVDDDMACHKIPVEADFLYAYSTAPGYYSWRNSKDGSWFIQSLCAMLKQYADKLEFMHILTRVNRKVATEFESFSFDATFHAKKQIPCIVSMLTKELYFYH

[4] = target: T3, Sentrin-specific protease 6 (Homo sapiens, UniProt Q9GZR1); type: functional;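 also: Luminescence-based dose-response confirmatory assay of SENP6 inhibition, following up an ultra-high-throughput screen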
T3 sequence (Q9GZR1 whole entry): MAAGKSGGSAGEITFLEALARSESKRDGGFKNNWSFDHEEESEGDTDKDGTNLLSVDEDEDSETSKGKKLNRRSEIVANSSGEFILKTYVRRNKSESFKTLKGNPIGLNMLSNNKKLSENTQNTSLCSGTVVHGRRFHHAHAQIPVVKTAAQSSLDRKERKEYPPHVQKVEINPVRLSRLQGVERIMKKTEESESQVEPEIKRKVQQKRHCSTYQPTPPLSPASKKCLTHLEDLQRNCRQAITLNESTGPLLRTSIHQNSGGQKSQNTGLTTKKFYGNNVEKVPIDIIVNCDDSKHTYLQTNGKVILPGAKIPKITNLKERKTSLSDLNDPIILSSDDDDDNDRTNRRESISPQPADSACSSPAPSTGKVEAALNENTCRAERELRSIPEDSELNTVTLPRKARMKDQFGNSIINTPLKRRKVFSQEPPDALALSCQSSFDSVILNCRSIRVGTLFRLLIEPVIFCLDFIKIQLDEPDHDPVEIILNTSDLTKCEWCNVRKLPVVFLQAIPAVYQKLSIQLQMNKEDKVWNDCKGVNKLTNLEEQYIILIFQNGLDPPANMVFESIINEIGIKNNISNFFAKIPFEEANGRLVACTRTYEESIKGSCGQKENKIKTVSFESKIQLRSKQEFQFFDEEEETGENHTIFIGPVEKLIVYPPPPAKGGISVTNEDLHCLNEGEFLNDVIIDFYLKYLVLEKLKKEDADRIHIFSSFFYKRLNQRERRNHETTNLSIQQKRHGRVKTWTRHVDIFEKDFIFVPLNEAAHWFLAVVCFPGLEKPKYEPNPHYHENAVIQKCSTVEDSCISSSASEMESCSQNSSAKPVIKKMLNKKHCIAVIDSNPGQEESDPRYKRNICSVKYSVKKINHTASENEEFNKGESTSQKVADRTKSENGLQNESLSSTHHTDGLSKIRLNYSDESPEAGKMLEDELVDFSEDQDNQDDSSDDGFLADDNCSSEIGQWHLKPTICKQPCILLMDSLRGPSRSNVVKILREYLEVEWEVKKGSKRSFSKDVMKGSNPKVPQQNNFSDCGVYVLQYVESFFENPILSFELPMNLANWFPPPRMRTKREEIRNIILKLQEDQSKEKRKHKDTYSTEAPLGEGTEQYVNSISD

[5] = target: Ribosomal protein S6 kinase alpha-3 (Homo sapiens, UniProt P51812); type: functional;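 also: measured within a kinome-wide profiling panel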
[6] = target: Dual specificity mitogen-activated protein kinase kinase 1 (Homo sapiens, UniProt Q02750); test: Navigating the Kinome. Panel member name: MAP2K1; type: functional
[7] = target: ALK tyrosine kinase receptor (Homo sapiens, UniProt Q9UM73); type: functional;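 also: ALK tested as one member of a kinase panel screen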
Activin receptor type-1 = Activin receptor type-1 (Homo sapiens, UniProt Q04771); test: Navigating the Kinome. Panel member name: ACVR1; type: functional
[8] = target: Serine/threonine-protein kinase PAK 4 (Homo sapiens, UniProt O96013); type: functional;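 also: value obtained within a kinome profiling panel in which PAK4 was one of the panel members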
[9] = target: Fibroblast growth factor receptor 1 (Homo sapiens, UniProt P11362); type: functional
[10] = target: Casein kinase I isoform alpha (Homo sapiens, UniProt P48729); type: functional
LIM domain kinase 1 = LIM domain kinase 1 (Homo sapiens, UniProt P53667); test: Navigating the Kinome. Panel member name: LIMK1; type: functional
[11] = target: Platelet-derived growth factor receptor beta (Homo sapiens, UniProt P09619); type: functional;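 also: value comes from a kinome panel, with PDGFRB tested as one panel member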
[12] = target: Serine/threonine-protein kinase Chk1 (Homo sapiens, UniProt O14757); type: functional;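 also: measured as one member of a kinome-wide kinase profiling panel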
[13] = target: Tyrosine-protein kinase ABL1 (Homo sapiens, UniProt P00519); type: functional
[14] = target: Vascular endothelial growth factor receptor 2 (Homo sapiens, UniProt P35968); type: functional
[15] = target: Glycogen synthase kinase-3 beta (Homo sapiens, UniProt P49841); type: functional;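 also: value comes from a broad kinome profiling panel, with GSK3B as the panel member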
[16] = target: Cyclin-dependent kinase 9 (Homo sapiens, UniProt P50750); type: functional;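 also: value from the CDK9 entry of a kinome-spanning kinase panel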
[17] = target: Inhibitor of nuclear factor kappa-B kinase subunit epsilon (Homo sapiens, UniProt Q14164); test: Navigating the Kinome. Panel member name: IKBKE; type: functional
[18] = target: Leukocyte tyrosine kinase receptor (Homo sapiens, UniProt P29376); test: Navigating the Kinome. Panel member name: LTK; type: functional
Chain of Leukocyte tyrosine kinase receptor (P29376 whole entry): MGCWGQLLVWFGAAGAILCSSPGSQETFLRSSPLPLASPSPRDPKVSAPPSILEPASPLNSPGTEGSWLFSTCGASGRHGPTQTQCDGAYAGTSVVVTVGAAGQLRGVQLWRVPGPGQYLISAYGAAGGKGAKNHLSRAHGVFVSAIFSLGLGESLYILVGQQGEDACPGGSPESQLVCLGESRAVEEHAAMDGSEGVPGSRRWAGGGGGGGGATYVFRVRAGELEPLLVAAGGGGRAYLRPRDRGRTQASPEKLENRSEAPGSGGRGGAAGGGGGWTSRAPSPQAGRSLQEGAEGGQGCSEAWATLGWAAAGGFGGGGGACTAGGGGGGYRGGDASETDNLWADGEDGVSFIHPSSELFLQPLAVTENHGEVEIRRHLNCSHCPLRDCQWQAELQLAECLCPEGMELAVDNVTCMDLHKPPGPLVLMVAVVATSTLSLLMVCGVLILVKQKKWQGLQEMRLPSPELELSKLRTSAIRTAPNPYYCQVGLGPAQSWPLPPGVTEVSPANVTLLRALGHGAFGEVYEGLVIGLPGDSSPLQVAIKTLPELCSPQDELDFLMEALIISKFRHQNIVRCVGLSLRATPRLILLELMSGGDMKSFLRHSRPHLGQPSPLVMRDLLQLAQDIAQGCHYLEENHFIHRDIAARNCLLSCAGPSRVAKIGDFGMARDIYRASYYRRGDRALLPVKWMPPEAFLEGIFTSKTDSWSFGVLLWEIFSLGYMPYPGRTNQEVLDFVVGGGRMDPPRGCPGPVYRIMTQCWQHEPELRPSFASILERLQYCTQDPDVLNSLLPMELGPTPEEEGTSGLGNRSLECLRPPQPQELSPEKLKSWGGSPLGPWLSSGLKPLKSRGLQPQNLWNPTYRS

Chain of LIM domain kinase 1 (P53667 whole entry, the tested form may be a part): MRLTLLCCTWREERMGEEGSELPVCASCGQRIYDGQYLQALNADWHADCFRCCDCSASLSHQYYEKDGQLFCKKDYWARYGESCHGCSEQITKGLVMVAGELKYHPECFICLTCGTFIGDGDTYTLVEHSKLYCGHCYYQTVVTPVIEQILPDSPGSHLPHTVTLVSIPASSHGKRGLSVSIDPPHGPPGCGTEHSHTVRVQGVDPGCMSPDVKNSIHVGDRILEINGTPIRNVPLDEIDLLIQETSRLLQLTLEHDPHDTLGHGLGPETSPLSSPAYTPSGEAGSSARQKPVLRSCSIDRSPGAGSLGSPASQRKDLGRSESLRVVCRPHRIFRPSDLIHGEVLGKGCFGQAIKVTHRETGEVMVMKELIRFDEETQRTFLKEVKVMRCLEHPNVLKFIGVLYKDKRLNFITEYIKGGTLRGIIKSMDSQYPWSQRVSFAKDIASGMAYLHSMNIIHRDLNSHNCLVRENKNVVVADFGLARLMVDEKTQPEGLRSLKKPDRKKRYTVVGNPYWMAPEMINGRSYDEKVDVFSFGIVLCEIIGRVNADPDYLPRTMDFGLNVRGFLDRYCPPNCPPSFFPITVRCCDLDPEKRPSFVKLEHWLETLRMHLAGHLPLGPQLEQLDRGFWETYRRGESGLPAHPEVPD
Chain of Activin receptor type-1 (Q04771 whole entry): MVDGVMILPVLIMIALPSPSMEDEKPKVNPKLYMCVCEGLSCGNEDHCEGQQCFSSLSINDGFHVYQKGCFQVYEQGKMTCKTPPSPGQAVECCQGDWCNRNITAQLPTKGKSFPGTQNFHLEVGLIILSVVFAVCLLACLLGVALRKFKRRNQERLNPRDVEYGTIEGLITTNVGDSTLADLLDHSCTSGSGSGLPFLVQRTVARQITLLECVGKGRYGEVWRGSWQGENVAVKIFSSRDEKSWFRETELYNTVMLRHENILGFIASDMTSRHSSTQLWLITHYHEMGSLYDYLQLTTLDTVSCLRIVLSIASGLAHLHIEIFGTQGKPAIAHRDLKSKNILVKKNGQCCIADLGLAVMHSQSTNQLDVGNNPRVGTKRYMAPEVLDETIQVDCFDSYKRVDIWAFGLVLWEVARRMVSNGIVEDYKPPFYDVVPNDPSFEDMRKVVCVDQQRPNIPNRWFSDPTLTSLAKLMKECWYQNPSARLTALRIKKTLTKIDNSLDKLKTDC
Chain of Casein kinase I isoform alpha (P48729 whole entry, the tested form may be a part, canonical isoform): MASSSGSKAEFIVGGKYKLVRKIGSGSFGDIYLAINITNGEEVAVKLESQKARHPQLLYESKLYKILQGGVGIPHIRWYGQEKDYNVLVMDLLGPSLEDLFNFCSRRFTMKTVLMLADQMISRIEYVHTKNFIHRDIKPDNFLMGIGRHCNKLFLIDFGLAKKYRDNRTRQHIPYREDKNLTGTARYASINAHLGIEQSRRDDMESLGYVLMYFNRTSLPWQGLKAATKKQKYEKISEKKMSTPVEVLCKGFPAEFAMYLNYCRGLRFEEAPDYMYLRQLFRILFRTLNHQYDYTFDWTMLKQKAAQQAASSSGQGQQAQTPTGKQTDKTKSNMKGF
Chain of Fibroblast growth factor receptor 1 (P11362 whole entry, canonical isoform): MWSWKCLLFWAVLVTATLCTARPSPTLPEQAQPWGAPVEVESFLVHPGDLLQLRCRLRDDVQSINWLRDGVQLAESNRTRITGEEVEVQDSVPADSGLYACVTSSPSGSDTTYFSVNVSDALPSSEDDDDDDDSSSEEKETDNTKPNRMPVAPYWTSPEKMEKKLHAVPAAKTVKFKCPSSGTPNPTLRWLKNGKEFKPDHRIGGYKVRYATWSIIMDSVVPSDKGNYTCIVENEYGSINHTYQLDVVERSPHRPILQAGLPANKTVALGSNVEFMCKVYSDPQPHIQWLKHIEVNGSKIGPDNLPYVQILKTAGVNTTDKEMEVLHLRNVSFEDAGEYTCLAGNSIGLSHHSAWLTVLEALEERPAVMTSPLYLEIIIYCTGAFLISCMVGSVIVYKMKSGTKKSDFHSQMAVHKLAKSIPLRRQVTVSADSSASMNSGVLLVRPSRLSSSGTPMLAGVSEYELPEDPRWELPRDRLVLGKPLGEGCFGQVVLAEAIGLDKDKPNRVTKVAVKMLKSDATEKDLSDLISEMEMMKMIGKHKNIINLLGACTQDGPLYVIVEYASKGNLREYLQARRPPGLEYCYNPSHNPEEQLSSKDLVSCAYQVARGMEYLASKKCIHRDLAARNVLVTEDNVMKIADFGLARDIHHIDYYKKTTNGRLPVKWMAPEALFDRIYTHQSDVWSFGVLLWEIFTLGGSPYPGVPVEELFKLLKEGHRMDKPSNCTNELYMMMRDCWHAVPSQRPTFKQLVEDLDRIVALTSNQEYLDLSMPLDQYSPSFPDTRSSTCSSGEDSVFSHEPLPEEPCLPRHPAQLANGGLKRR
Chain of ALK tyrosine kinase receptor (Q9UM73 whole entry): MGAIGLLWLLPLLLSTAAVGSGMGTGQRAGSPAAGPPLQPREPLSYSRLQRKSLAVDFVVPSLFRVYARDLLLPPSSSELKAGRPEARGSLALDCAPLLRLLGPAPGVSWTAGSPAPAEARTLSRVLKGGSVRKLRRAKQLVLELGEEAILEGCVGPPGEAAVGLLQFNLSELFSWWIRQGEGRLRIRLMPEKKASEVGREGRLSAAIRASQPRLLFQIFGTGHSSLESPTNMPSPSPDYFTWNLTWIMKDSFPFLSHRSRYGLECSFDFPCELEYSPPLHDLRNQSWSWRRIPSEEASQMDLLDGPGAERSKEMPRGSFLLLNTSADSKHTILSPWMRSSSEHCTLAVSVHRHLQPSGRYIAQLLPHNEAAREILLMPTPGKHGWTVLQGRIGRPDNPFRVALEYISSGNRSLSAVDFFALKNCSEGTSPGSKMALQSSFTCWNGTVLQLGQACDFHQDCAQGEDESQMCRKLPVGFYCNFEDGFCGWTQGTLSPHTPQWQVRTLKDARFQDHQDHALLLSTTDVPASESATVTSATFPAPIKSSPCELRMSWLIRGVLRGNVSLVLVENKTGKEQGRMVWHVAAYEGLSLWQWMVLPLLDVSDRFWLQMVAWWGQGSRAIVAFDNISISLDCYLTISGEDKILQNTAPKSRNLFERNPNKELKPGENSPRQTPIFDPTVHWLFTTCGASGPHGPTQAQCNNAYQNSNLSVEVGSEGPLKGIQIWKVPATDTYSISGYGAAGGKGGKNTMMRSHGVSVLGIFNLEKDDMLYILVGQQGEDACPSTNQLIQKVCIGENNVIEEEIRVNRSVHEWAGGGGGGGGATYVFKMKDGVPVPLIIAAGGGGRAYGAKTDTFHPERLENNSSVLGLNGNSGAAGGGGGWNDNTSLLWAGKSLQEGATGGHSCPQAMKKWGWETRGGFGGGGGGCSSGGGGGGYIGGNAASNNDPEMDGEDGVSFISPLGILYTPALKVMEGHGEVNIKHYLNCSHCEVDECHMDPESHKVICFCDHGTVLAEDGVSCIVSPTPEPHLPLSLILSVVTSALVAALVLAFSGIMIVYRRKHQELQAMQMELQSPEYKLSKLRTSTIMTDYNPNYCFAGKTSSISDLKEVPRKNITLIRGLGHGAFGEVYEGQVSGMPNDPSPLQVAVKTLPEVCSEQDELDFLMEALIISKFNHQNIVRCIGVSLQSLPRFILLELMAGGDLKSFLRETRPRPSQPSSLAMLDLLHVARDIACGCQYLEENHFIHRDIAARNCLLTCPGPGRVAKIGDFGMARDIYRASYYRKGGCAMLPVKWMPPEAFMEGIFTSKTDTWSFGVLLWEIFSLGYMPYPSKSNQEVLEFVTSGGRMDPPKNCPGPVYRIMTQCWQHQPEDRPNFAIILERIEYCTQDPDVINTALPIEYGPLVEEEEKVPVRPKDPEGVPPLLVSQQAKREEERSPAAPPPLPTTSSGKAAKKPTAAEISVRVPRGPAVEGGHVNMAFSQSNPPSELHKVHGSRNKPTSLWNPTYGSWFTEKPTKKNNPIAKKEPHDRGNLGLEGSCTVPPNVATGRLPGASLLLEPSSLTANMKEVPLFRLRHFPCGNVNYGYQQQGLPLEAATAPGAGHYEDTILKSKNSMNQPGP

CN1CCN(C(c2ccc(C(F)(F)F)cc2)c2cc(Cl)c3cccnc3c2O)CC1 (configuration not stated)
EC50 [1]: 10.9 µM (inconclusive)
EC50 [2]: 10.5 µM (active)
EC50 [3]: 8.87 µM (active)
EC50 (Streptokinase A): > 150 µM (not active)

NC(=O)c1c(NC(=O)c2cc3ccccc3o2)sc2c1CCC2
IC50 (Caspase-3): 15.1 µM (active)
IC50 [4]: 17.2 µM (active)

O=C(NC(CCO)c1ccccc1)c1ccc(-c2ccncc2)cc1 (configuration not stated)
Ki [5]: > 3.98 µM (inactive)
Ki [6]: > 3.16 µM (inactive)
Ki [7]: > 6.31 µM (inactive)
Ki (Activin receptor type-1): > 3.98 µM (inactive)
Ki [8]: > 5.01 µM (inactive)
Ki [9]: > 3.98 µM (inactive)
Ki [10]: > 3.98 µM (inactive)
Ki (LIM domain kinase 1): > 3.16 µM (inactive)
Ki [11]: > 2 µM (inactive)
Ki [12]: > 3.16 µM (inactive)
Ki [13]: > 3.98 µM (inactive)
Ki [14]: > 2.51 µM (inactive)
Ki [15]: 1.26 µM (active)
Ki [16]: > 1.58 µM (inactive)
Ki [17]: > 3.16 µM (inactive)
Ki [18]: > 2.51 µM (inactive)

— ChEMBL document CHEMBL1201862, “PubChem BioAssay data set” (2004)
